The test system of one assay is prostate cancer. Particulars: cited from earlier work.
The next assay concerns PSMA+ LNCaP cells. As to the kind of experiment: cell surface binding and internalization of radiolabeled compounds. Particulars: 68Ga-labeled. The format is cell-based. The method, then:
(§1) PSMA^+ LNCaP cells (ATCC CRL-1740) were cultured in RPMI medium. Cells were grown at 37° C. in humidified air with 5% C02 and were harvested using trypsin-ethylenediaminetetraacetic acid.
(§2) The competitive cell binding assay and internalization experiments were performed according to Eder M et al. (2012), Bioconjug Chem 23(4):688.
For internalization experiments, 10^5 cells per well were seeded in poly-L-lysine coated 24-well cell culture plates 24 h before incubation. After washing, the cells were incubated with 30 nM of the ^68Ga- or ^177Lu-radiolabeled compound for 45 min at 37° C. and at 4° C., respectively. Cellular uptake was terminated by washing 3 times with 1 mL of ice-cold PBS. To remove surface-bound radioactivity, cells were incubated twice with 0.5 mL glycine-HCl in PBS (50 mM, pH=2.8) for 5 min. The cells were washed with 1 mL of ice-cold PBS and lysed using 0.3 N NaOH (0.5 mL). The surface-bound and the internalized fractions were measured in a gamma counter. The cell uptake was calculated as percent of the initially added radioactivity bound to 10^5 cells [% ID/10^5 cells].

The target in a further assay is T1, PSMA (Homo sapiens, UniProt Q04609).
T1 construct: host or cells: LNCaP cells
T1 sequence (Q04609 whole entry): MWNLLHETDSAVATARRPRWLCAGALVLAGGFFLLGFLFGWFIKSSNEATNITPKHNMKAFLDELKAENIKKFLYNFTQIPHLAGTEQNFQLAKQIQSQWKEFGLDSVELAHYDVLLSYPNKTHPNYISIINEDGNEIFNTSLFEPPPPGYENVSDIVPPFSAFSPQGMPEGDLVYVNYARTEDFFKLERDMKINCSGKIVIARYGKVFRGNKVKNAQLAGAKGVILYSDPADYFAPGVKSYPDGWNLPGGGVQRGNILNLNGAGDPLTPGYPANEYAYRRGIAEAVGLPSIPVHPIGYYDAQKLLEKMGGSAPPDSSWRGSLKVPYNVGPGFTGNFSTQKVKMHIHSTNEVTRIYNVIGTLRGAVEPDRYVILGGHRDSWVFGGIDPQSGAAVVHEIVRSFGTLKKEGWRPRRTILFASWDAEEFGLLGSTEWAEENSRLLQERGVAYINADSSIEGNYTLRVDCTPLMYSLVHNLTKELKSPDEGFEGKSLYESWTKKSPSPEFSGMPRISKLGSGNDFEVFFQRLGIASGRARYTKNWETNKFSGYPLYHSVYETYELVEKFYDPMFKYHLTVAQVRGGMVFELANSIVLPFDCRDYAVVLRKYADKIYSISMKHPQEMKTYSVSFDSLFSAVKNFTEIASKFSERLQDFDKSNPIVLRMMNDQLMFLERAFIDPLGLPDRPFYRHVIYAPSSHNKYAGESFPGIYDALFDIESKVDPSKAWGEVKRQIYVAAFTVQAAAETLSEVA
Kind of assay: competitive cell binding assay vs 68Ga-labeled PSMA-10 on LNCaP cells. Particulars: LNCaP cells, 0.8 nM 68Ga-PSMA-10 radioligand; read-out: Specific Binding Affinity IC50. As to the method:
as §1, §2
Briefly, the cells (10^5 per well) were incubated with a 0.8 nM solution of ^68Ga-labeled radioligand [Glu-urea-Lys(Ahx)]2-HBED-CC (PSMA-10, precursor ordered from ABX, Radeberg, Germany) in the presence of 12 different concentrations of analyte (0-5000 nM, 100 μL/well). After incubation, the mixture was removed and the wells were washed 3 times with PBS using a multiscreen vacuum manifold (Millipore, Billerica, Mass.). Cell-bound radioactivity was measured using a gamma counter (Packard Cobra II, GMI, Minnesota, USA). The 50% inhibitory concentration (IC50) values were calculated by fitting the data using a nonlinear regression algorithm (GraphPad Software).

Here are results for 4 compounds from US20220118121A1, “PROSTATE SPECIFIC MEMBRANE ANTIGEN (PSMA) LIGANDS WITH IMPROVED TISSUE SPECIFICITY” (Ruprecht-Karls-Universität Heidelberg, priority 2019, published 2022).

Where a SMILES comes first, the peptide text is derived from it. [ ]: non-standard residue; d: D form. The star is where a group is joined. DOTA = O=C(O)CN1CCN(CC(=O)O)CCN(CC(=O)*)CCN(CC(=O)O)CC1; EuK = O=C(O)CC[C@H](NC(=O)N[C@@H](CCCCN*)C(=O)O)C(=O)O; 2Nal = N[C@@H](Cc1ccc2ccccc2c1)C(=O)O; Trx = NC[C@H]1CC[C@H](C(=O)O)CC1

Regarding `O=C([O-])CC[C@H](NC(=O)N[C@@H](CCCCNC(=O)[C@H](Cc1ccc2ccccc2c1)NC(=O)C1CCC(CNC(=O)CN2CCN(CC(=O)[O-])CCN(CC(=O)[O-])CCN(CC(=O)[O-])CC2)CC1)C(=O)[O-])C(=O)[O-].[225Ac].[H+].[H+].[H+]` (some centres unmarked) [225Ac-PSMA-617], the PSA value result with prostate cancer (both patients) is reported as “fell below the detectability limit”. Further, the response of patients entry with prostate cancer (two patients with extremely advanced and end-stage disease) was “complete remission”.
As to `O=C(O)CC[C@H](NC(=O)N[C@@H](CCCCNC(=O)[C@H](Cc1ccc2ccccc2c1)NC(=O)[C@H]1CC[C@H](CNC(=O)[C@H](Cc2c[nH]cn2)NC(=O)[C@H](CCC(=O)O)NC(=O)[C@H](Cc2c[nH]cn2)NC(=O)[C@H](CCC(=O)O)NC(=O)[C@H](Cc2c[nH]cn2)NC(=O)[C@H](CCC(=O)O)NC(=O)[C@H](Cc2c[nH]cn2)NC(=O)[C@H](CCC(=O)O)NC(=O)CN2CCN(CC(=O)O)CCN(CC(=O)O)CCN(CC(=O)O)CC2)CC1)C(=O)O)C(=O)O` [PS-4, DOTA-(EH)4-CHx-2NaI-PSMA] ({DOTA}-EHEHEHEH[Trx][2Nal]-EuK), in the assay with PSMA+ LNCaP cells, the “Specific Cell Surface Binding” value is listed as 1.33 ± 0.09 % ID/10^5 cells and the “Specific Internalization” value came out at 0.52 ± 0.04 % ID/10^5 cells. For the same compound, in the assay on PSMA+ LNCaP cells (blocked), the “Cell Surface binding” value is 0.083 ± 0.029 % ID/10^5 cells and the Internalization is given as 0.151 ± 0.048 % ID/10^5 cells. In the assay on PSMA+ LNCaP cells (not blocked), the “Cell Surface binding” value was determined as 1.420 ± 0.113 % ID/10^5 cells and the Internalization is reported as 0.676 ± 0.070 % ID/10^5 cells. For the same compound, the IC50 on PSMA is 46.7 ± 37.3 nM.
In the case of `O=C(O)CC[C@H](NC(=O)N[C@@H](CCCCNC(=O)[C@H](Cc1ccc2ccccc2c1)NC(=O)[C@H]1CC[C@H](CNC(=O)[C@H](CCC(=O)O)NC(=O)[C@H](Cc2c[nH]cn2)NC(=O)[C@H](CCC(=O)O)NC(=O)[C@H](Cc2c[nH]cn2)NC(=O)[C@H](CCC(=O)O)NC(=O)[C@H](Cc2c[nH]cn2)NC(=O)CN2CCN(CC(=O)O)CCN(CC(=O)O)CCN(CC(=O)O)CC2)CC1)C(=O)O)C(=O)O` [PS-4.2, DOTA-(HE)3-CHx-2NaI-PSMA] ({DOTA}-HEHEHE[Trx][2Nal]-EuK), in the assay on PSMA+ LNCaP cells, the “Specific Cell Surface Binding” value was 1.35 ± 0.28 % ID/10^5 cells and the “Specific Internalization” value is reported as 0.71 ± 0.28 % ID/10^5 cells. In the assay with PSMA+ LNCaP cells (blocked), the “Cell Surface binding” value came to 0.080 ± 0.010 % ID/10^5 cells and the Internalization was found to be 0.113 ± 0.023 % ID/10^5 cells. For the same compound, in the assay with PSMA+ LNCaP cells (not blocked), the “Cell Surface binding” value amounted to 1.437 ± 0.138 % ID/10^5 cells and the Internalization is 0.676 ± 0.070 % ID/10^5 cells. The IC50 on PSMA worked out at 27.9 ± 6.93 nM.
On to `O=C(O)CC[C@H](NC(=O)N[C@@H](CCCCNC(=O)[C@H](Cc1ccc2ccccc2c1)NC(=O)[C@H]1CC[C@H](CNC(=O)[C@H](Cc2c[nH]cn2)NC(=O)[C@H](Cc2c[nH]cn2)NC(=O)[C@H](Cc2c[nH]cn2)NC(=O)CN2CCN(CC(=O)O)CCN(CC(=O)O)CCN(CC(=O)O)CC2)CC1)C(=O)O)C(=O)O` [PS-7, DOTA-(H)3-CHx-2NaI-PSMA] ({DOTA}-HHH[Trx][2Nal]-EuK), for which, in the assay with PSMA+ LNCaP cells, the “Specific Cell Surface Binding” value turned out to be 0.69 ± 0.11 % ID/10^5 cells and the “Specific Internalization” value is listed as 0.47 ± 0.11 % ID/10^5 cells. Moreover, in the assay on PSMA+ LNCaP cells (blocked), the “Cell Surface binding” value came to 0.123 ± 0.015 % ID/10^5 cells and the Internalization was 0.207 ± 0.021 % ID/10^5 cells. Moreover, in the assay with PSMA+ LNCaP cells (not blocked), the “Cell Surface binding” value was 0.817 ± 0.047 % ID/10^5 cells and the Internalization is 0.673 ± 0.093 % ID/10^5 cells. Further, at PSMA, the IC50 is 22.7 ± 6.47 nM.

Usually IC50 stands for the point on the concentration scale where inhibition reaches its midpoint.
